Assay results from ChEMBL document CHEMBL1139353, “Discovery of a new class of potential multifunctional atypical antipsychotic agents targeting dopamine D3 and serotonin 5-HT1A and 5-HT2A receptors: design, synthesis, and effects on behavior” (J Med Chem, 2009).
Activity calls are given as the source filed them. The calls are words filed in the database; no cut-off is given here.

Experiments:
[1] = test system: Rattus norvegicus; test: Induction of c-Fos protein expression in rat nucleus accumbens shell at 3 mg/kg, ip after 1 hr by light microscopy; type: functional, organism-based; parameters: dose 3 mg/kg
[2] = test system: Rattus norvegicus; test: Induction of c-Fos protein expression in rat dorsolateral striatum at 30 mg/kg, ip after 1 hr by light microscopy; type: functional, organism-based; parameters: dose 30 mg/kg
[3] = Displacement of [3H]idazoxan from imidazole I2 receptor in rabbit kidney by filtration technique; parameters: species or system Oryctolagus cuniculus
[4] = molecular target: T1, Adrenergic receptor alpha-1 (Rattus norvegicus, UniProt P15823+P23944+P43140); test: Displacement of [3H]prazosin from adrenergic alpha1 receptor in rat cerebral cortex by liquid scintillation counting; type: tissue-based
T1 sequence (P15823 whole entry): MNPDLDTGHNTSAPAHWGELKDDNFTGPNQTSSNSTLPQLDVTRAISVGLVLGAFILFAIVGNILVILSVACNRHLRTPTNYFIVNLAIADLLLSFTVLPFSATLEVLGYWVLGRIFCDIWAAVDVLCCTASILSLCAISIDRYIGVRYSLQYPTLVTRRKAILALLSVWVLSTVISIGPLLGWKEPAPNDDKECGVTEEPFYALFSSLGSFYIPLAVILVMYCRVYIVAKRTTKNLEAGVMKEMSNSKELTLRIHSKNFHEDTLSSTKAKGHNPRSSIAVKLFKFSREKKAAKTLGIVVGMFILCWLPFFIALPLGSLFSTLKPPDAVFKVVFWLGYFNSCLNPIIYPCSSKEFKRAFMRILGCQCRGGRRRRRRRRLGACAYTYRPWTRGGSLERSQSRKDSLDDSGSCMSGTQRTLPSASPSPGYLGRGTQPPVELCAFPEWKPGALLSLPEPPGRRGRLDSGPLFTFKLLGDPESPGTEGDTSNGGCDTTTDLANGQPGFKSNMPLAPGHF
T1 sequence (P23944 whole entry): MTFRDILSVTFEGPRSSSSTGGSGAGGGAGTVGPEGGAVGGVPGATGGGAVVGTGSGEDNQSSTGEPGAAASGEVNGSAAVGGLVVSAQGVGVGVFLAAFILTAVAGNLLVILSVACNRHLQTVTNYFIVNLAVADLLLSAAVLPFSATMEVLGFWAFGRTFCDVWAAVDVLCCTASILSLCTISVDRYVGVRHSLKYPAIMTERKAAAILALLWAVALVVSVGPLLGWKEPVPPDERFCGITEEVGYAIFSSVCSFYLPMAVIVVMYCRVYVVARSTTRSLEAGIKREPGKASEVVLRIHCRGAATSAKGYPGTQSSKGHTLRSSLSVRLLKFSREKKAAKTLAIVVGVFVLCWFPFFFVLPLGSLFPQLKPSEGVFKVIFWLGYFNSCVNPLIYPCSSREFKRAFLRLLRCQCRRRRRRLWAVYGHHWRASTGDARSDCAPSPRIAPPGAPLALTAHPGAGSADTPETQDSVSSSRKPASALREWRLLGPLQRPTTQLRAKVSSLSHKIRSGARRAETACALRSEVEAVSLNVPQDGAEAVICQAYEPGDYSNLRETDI
T1 sequence (P43140 whole entry): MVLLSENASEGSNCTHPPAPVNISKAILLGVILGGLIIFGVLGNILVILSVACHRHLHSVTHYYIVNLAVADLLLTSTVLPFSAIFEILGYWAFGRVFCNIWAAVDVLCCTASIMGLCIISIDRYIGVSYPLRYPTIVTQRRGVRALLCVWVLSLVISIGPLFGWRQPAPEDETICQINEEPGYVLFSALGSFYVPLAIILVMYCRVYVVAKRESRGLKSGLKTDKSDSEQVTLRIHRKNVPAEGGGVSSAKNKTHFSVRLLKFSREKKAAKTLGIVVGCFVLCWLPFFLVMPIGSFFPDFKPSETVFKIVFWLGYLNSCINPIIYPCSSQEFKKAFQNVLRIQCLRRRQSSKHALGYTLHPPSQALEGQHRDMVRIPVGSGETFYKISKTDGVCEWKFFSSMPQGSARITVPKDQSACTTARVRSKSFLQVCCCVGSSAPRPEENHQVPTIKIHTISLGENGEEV

[5] = Intrinsic activity at 5HT1A receptor in Duncan Hartley guinea pig ileum; type: tissue-based; conditions: Cavia porcellus
[6] = molecular target: 5-hydroxytryptamine receptor 2A (Rattus norvegicus, UniProt P14842)
Description: Displacement of [3H]ketanserin from 5HT2A receptor in CRL:CD(SD)BR-COBS rat cortex by scintillation spectrometry

[7] = organism: Mus musculus; test: animal or person; conditions: NMRI
Description: Antipsychotic activity in NMRI mouse assessed as reduction in phencyclidine-induced locomotor activity administered 30 mins prior to testing measured for 60 mins

5-hydroxytryptamine receptor 2A, sequence (P14842 whole entry): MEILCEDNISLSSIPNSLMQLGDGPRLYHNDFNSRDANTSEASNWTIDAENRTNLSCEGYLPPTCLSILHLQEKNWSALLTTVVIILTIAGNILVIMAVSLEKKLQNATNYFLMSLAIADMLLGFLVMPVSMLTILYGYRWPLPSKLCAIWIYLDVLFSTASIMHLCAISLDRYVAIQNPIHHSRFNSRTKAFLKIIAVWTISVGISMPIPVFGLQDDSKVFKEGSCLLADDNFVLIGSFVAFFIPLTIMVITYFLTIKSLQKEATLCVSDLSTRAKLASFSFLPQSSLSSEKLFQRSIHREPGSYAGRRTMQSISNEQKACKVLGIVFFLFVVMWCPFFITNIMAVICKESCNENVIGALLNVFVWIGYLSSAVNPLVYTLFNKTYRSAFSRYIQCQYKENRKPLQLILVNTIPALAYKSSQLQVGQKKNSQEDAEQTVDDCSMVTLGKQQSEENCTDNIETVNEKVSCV

Ki [3]: 0.138 µM
Ki [4]: 0.006 µM
IC50 [5]: 0.18 µM
Ki [6]: 0.0153 µM
Compound: Cc1cccc(N2CCN(CCCCNC(=O)c3cc4ccccc4o3)CC2)c1
Activity [1]: Active
Activity [2]: Active
ED50 [7]: 2.6 mg/kg
